Source: patent publication US20190110476A1, “NOVEL ISOTHIAZOLAMIDES, PROCESSES FOR THEIR PREPARATION AND THEIR USE AS FUNGICIDES” (priority 2014, published 2019)
Marks after values point to notes of the source that are not given here.

assay: Measurement of LogP values by HPLC on reversed phase columns (EEC directive 79/831 Annex V.A8); assay type: physicochemical
Outline: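 LogP measured by reversed-phase HPLC following EEC directive 79/831 Annex V.A8. Lambda-max taken from UV spectra at 200–400 nm at chromatographic peak maxima; diastereoisomer values listed separately.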

Row | Structure (SMILES) | LogP
1 | Nc1nsc(C(=O)NCCc2ccc(F)cc2)c1Cl [I-966] | 2.13[a]
2 | Nc1cc(C(=O)N(Cc2ccc(Cl)cc2Cl)C2CC2)sn1 [I-967] | 2.90[a]
3 | Nc1cc(C(=O)N(Cc2c(Cl)cccc2Cl)C2CC2)sn1 [I-968] | 2.53[a]
4 | CC1(C)CC1N(Cc1ccc(Cl)cc1Cl)C(=O)c1cc(N)ns1 (stereo not shown) [I-969] | 3.48[a]
5 | Nc1cc(C(=O)N(Cc2cc(Cl)cc(C(F)(F)F)c2)C2CC2)sn1 [I-970] | 3.11[a]
6 | Nc1nsc(C(=O)NCCc2ccc(Cl)cc2)c1Cl [I-971] | 2.46[a]
7 | Nc1nsc(C(=O)NCCc2ccccc2F)c1Cl [I-972] | 2.11[a]
8 | CC(C)N(C(=O)c1snc(NC(=O)C(C)(C)C)c1Cl)C(C)C [I-974] | 2.80[a]
9 | CC(=O)N(C(C)=O)c1nsc(C(=O)N(C(C)C)C(C)C)c1Cl [I-975] | 2.77[a]
10 | Cc1cc(C)c(CN(C(=O)c2cc(N)ns2)C2CC2)c(C)c1 [I-977] | 2.86[a]
11 | Nc1cc(C(=O)N(Cc2ccccc2)C2CC2)sn1 [I-978] | 2.02[a]
12 | CC(c1cc(Cl)cc(Cl)c1)N(C(=O)c1cc(N)ns1)C1CC1 (stereo not shown) [I-979] | 3.19[a]
13 | Nc1nsc(C(=O)N(C2CCCCC2)C2CC2)c1Cl [I-980] | 2.78[a]
14 | COc1ccc(CNc2nsc(C(=O)NC(=O)C3CCCCC3)c2Cl)cc1 [I-982] | 3.83[a]
15 | O=C(NCCc1ccccc1)c1snc(N(Cc2ccccc2)Cc2ccccc2)c1-c1ccc(F)cc1 [I-983] | 5.68[a]
16 | CCC(C)CNC(=O)c1cc(N)ns1 (stereo not shown) [I-984] | 1.44[a]
17 | CC(C)CNC(=O)c1cc(N)ns1 [I-985] | 1.07[a]
18 | COc1ccc(CNc2nsc(C(=O)N(Cc3cc(C)ccc3F)C3CC3)c2Cl)cc1 [I-986] | 4.46[a]
19 | COc1ccc(CNc2nsc(C(=O)N(Cc3cc(F)ccc3F)C3CC3)c2Cl)cc1 [I-987] | 4.15[a]
20 | COc1ccc(CNc2nsc(C(=O)N(Cc3cc(Cl)ccc3F)C3CC3)c2Cl)cc1 [I-988] | 4.49[a]
21 | COc1ccc(CNc2nsc(C(=O)N(Cc3cc(Cl)ccc3Br)C3CC3)c2Cl)cc1 [I-989] | 4.98[a]
22 | Cc1ccc(F)c(CN(C(=O)c2cc(N(Cc3ccccc3)Cc3ccccc3)ns2)C2CC2)c1 [I-990] | 5.56[a]
23 | O=C(c1cc(N(Cc2ccccc2)Cc2ccccc2)ns1)N(Cc1cc(F)ccc1F)C1CC1 [I-991] | 5.25[a]
24 | O=C(c1cc(N(Cc2ccccc2)Cc2ccccc2)ns1)N(Cc1cc(Cl)ccc1F)C1CC1 [I-992] | 5.59[a]

Row | Structure (SMILES) | LogP
25 | O=C(c1cc(N(Cc2ccccc2)Cc2ccccc2)ns1)N(Cc1cc(Cl)ccc1Br)C1CC1 [I-993] | 6.11[a]
26 | Nc1nsc(C(=O)NCCc2ccccc2)c1-c1ccc(F)cc1 [I-994] | 2.59[a]
27 | Cc1ccc(F)c(CN(C(=O)c2cc(N)ns2)C2CC2)c1 [I-995] | 2.44[a]
28 | Cc1ccc(F)c(CN(C(=O)c2cc(NCc3ccccc3)ns2)C2CC2)c1 [I-996] | 4.01[a]
29 | Nc1cc(C(=O)N(Cc2cc(F)ccc2F)C2CC2)sn1 [I-997] | 2.18[a]
30 | O=C(c1cc(NCc2ccccc2)ns1)N(Cc1cc(F)ccc1F)C1CC1 [I-998] | 3.74[a]
31 | Nc1cc(C(=O)N(Cc2cc(Cl)ccc2F)C2CC2)sn1 [I-999] | 2.49[a]
32 | O=C(c1cc(NCc2ccccc2)ns1)N(Cc1cc(Cl)ccc1F)C1CC1 [I-1000] | 4.06[a]
33 | Nc1cc(C(=O)N(Cc2cc(Cl)ccc2Br)C2CC2)sn1 [I-1001] | 2.84[a]
34 | O=C(c1cc(NCc2ccccc2)ns1)N(Cc1cc(Cl)ccc1Br)C1CC1 [I-1002] | 4.51[a]
35 | COc1ccc(CNc2nsc(C(=O)N(Cc3ccc(F)cc3F)C3CC3)c2Cl)c(OC)c1 [I-1012] | 4.46[a]
36 | CCC(C)CNC(=O)c1snc(N)c1Cl (stereo not shown) [I-1014] | 1.98[a]
37 | Nc1nsc(C(=S)NCc2c(F)cc(F)cc2F)c1Cl [I-1015] | 2.86[a]
38 | Nc1nsc(C(=S)NCc2ccc(F)cc2F)c1Cl [I-1016] | 2.74[a]
39 | CC(C)CNC(=O)c1snc(N)c1Cl [I-1018] | 1.55[a]
40 | Nc1nsc(C(=S)NCc2ccccc2F)c1Cl [I-1021] | 2.73[a]
41 | CCC(C)CNC(=S)c1snc(N)c1Cl (stereo not shown) [I-1022] | 2.87[a]
42 | Nc1nsc(C(=S)NCc2ccc(Cl)cc2)c1Cl [I-1026] | 3.12[a]
43 | COc1ccc(CNc2nsc(C(=O)NOc3ccccc3)c2Cl)cc1 [I-1031] | 3.17[a]
44 | Nc1nsc(C(=O)NOc2ccccc2)c1Cl [I-1033] | 1.53[a]
45 | COc1ccc(CNc2nsc(C(=O)NC(Cc3ccccc3)C3CCCCC3)c2Cl)cc1 (stereo not shown) [I-1079] | 5.10[b]
46 | Nc1nsc(C(=O)NC(Cc2ccccc2)C2CCCCC2)c1Cl (stereo not shown) [I-1095] | 3.55[b]
47 | CCC(NC(=O)c1snc(NCc2ccc(OC)cc2)c1Cl)C1CCCCC1 (stereo not shown) [I-1170] | 4.83[b]
48 | COc1ccc(CNc2nsc(C(=O)NC(C)c3ccncc3)c2Cl)cc1 (stereo not shown) [I-1189] | 1.54[a]

Row | Structure (SMILES) | LogP
49 | COc1ccc(CNc2nsc(C(=O)NC3CCOCC3)c2Cl)cc1 [I-1190] | 2.50[a]
50 | CCC1CC(C)CC(CC)C1NC(=O)c1snc(NCc2ccc(OC)cc2)c1Cl (stereo not shown) [I-1191] | 6.02[a]
51 | COc1ccc(CNc2nsc(C(=O)NC(c3ccccc3C)C(C)C)c2Cl)cc1 (stereo not shown) [I-1192] | 4.69[a]
52 | CCc1ccc(CNC(=O)c2snc(NCc3ccc(OC)cc3)c2Cl)nc1 [I-1193] | 2.34[a]
53 | COc1ccc(CNc2nsc(C(=O)NCCCn3cccn3)c2Cl)cc1 [I-1194] | 2.53[a]
54 | COc1ccc(CNc2nsc(C(=O)NC3CCC3)c2Cl)cc1 [I-1195] | 3.15[a]
55 | COc1ccc(CNc2nsc(C(=O)NCCC3CCOC3)c2Cl)cc1 (stereo not shown) [I-1196] | 2.59[a]
56 | COc1ccc(CNc2nsc(C(=O)NC(C)c3ccccn3)c2Cl)cc1 (stereo not shown) [I-1197] | 2.57[a]
57 | CCn1cc(CNC(=O)c2snc(NCc3ccc(OC)cc3)c2Cl)c(C(F)F)n1 [I-1198] | 3.09[a]
58 | COc1ccc(CNc2nsc(C(=O)NCc3ccc(C(C)(C)C)cc3)c2Cl)cc1 [I-1199] | 4.69[a]
59 | COc1ccc(CNc2nsc(C(=O)NCC3COCC3C)c2Cl)cc1 (stereo not shown) [I-1200] | 2.68[a]
60 | COc1ccc(CNc2nsc(C(=O)NCc3cscc3C)c2Cl)cc1 [I-1201] | 3.61[a]
61 | CCC(NC(=O)c1snc(NCc2ccc(OC)cc2)c1Cl)c1cn(CC)nc1C (stereo not shown) [I-1202] | 3.02[a]
62 | COc1ccc(CNc2nsc(C(=O)NCc3nc(C)cs3)c2Cl)cc1 [I-1203] | 2.80[a]
63 | COc1ccc(CNc2nsc(C(=O)NCc3ccnc(OC)c3)c2Cl)cc1 [I-1204] | 2.78[a]
64 | CCn1cc(CNC(=O)c2snc(NCc3ccc(OC)cc3)c2Cl)cn1 [I-1205] | 2.48[a]
65 | COc1ccc(CNc2nsc(C(=O)NC3CC(C)CC(C)(C)C3)c2Cl)cc1 (stereo not shown) [I-1206] | 5.00[a]
66 | COc1ccc(CNc2nsc(C(=O)NC(C)c3ccc(C(C)C)cc3)c2Cl)cc1 (stereo not shown) [I-1207] | 4.69[a]
67 | COc1ccc(CNc2nsc(C(=O)NCC3OCCc4ccccc43)c2Cl)cc1 (stereo not shown) [I-1208] | 3.72[a]
68 | C#CC1(NC(=O)c2snc(NCc3ccc(OC)cc3)c2Cl)CCCCC1 [I-1209] | 3.99[a]
69 | COc1ccc(CNc2nsc(C(=O)NC3CCCC(C)C3C)c2Cl)cc1 (stereo not shown) [I-1210] | 4.46[a]
70 | COc1ccc(CNc2nsc(C(=O)NCc3cccn3C)c2Cl)cc1 [I-1211] | 3.15[a]
71 | COc1ccc(CNc2nsc(C(=O)NC(C)c3ccccc3F)c2Cl)cc1 (stereo not shown) [I-1212] | 3.79[a]
72 | COc1ccc(CNc2nsc(C(=O)NCc3cncn3C)c2Cl)cc1 [I-1213] | 1.35[a]

Row | Structure (SMILES) | LogP
73 | CCn1nc(C)c(CNC(=O)c2snc(NCc3ccc(OC)cc3)c2Cl)c1C [I-1214] | 2.57[a]
74 | CCC1CCCCC1NC(=O)c1snc(NCc2ccc(OC)cc2)c1Cl (stereo not shown) [I-1215] | 4.49[a]
75 | COc1ccc(CNc2nsc(C(=O)NC3CCC4CCCCC4C3)c2Cl)cc1 (stereo not shown) [I-1216] | 5.24[a]
76 | COc1ccc(CNc2nsc(C(=O)NCc3csc(C)n3)c2Cl)cc1 [I-1217] | 2.69[a]
77 | COc1ccc(CNc2nsc(C(=O)NC3CC(C(F)(F)F)CC(C(F)(F)F)C3)c2Cl)cc1 (stereo not shown) [I-1218] | 4.30[a]
78 | COc1ccc(CNc2nsc(C(=O)NC3C(C(C)C)CCCC3C(C)C)c2Cl)cc1 (stereo not shown) [I-1219] | 6.32[a]
79 | COc1ccc(CNc2nsc(C(=O)NC3(C#N)CCCC3C)c2Cl)cc1 (stereo not shown) [I-1220] | 3.41[a]
80 | COc1ccc(CNc2nsc(C(=O)NCc3ccc(OC(F)F)cc3)c2Cl)cc1 [I-1229] | 3.63[a]
81 | COc1ccc(CNc2nsc(C(=O)NCc3cc(OC)ccc3OC)c2Cl)cc1 [I-1230] | 3.59[a]
82 | COc1ccc(CNc2nsc(C(=O)NCc3cnccn3)c2Cl)cc1 [I-1231] | 2.26[a]
83 | COc1ccc(CNc2nsc(C(=O)NC(C)(C)c3cccc(C(F)(F)F)c3)c2Cl)cc1 [I-1232] | 4.44[a]
84 | COc1ccc(CNc2nsc(C(=O)NCc3cccc(OC(F)(F)F)c3)c2Cl)cc1 [I-1233] | 4.13[a]
85 | COc1ccc(CNc2nsc(C(=O)NC(C)c3cccc(OC)c3)c2Cl)cc1 (stereo not shown) [I-1234] | 3.68[a]
86 | COc1ccc(CNc2nsc(C(=O)NCc3cccnc3OC)c2Cl)cc1 [I-1235] | 3.13[a]
87 | COc1ccc(CNc2nsc(C(=O)NCC3(C)CCCO3)c2Cl)cc1 (stereo not shown) [I-1236] | 3.06[a]
88 | CCn1ncc(CNC(=O)c2snc(NCc3ccc(OC)cc3)c2Cl)c1C [I-1237] | 2.59[a]
89 | COc1ccc(CNc2nsc(C(=O)NCc3ccn(C)n3)c2Cl)cc1 [I-1238] | 2.39[a]
90 | COc1ccc(CNc2nsc(C(=O)NC(C)Cc3ccco3)c2Cl)cc1 (stereo not shown) [I-1239] | 3.55[a]
91 | COc1ccc(CNc2nsc(C(=O)NCc3ccc(OC)c(Cl)c3)c2Cl)cc1 [I-1240] | 3.68[a]
92 | COc1ccc(CNc2nsc(C(=O)NCc3cccs3)c2Cl)cc1 [I-1241] | 3.31[a]
93 | COc1ccc(CNc2nsc(C(=O)NCc3ccc(OC(F)(F)F)cc3)c2Cl)cc1 [I-1242] | 4.15[a]
94 | COc1ccc(CNc2nsc(C(=O)NCc3cccc(Cl)c3C)c2Cl)cc1 [I-1243] | 4.20[a]
